Test results reported in patent US12576093B2, “Pharmaceutical composition for subcutaneous administration” (MANNKIND CORPORATION, priority 2019, dated 2026).
Read-outs that look alike come from different tables or passages of the source.

Columns and labels:
[1] = dog, in vivo, sc, 0.837 mg/kg
[2] = cited from earlier work
[3] = cited from earlier work; remark: listed apart in the source
in vivo = conditions: male, Beagle, dog, sc, 0.837 mg/kg

Cmax [1]: 3.41 ng(mL
AUC(0-t) (in vivo; AUClast): 0.0829 µg·h/mL
MRT last (in vivo; MRTlast): 24.4 h
tmax (in vivo; Tmax): 30 h
SMILES: CN1CCc2cccc3c2[C@H]1Cc1ccc(O)c(O)c1-3 [Apomorphine]
Solubility ([2]; in Toluene (wrapped cell r23-r24: practically insoluble)): insoluble in Toluene.
Solubility ([2]; in alcohol (wrapped cell r19-r20: sparingly soluble in water and in alcohol)): Sparingly soluble in water
Solubility ([2]; in chloroform (wrapped cell r21-r22: very slightly soluble)): water at 80°; very slightly
Solubility ([2]; in ether (wrapped cell r21-r23: very slightly soluble)): water at 80°; very slightly
Solubility ([2]; in water): Sparingly soluble in water
Stability ([3]; exposure to light and air (wrapped cell r15-r17: gradually acquires a green color)): acquires a green color on
Stability ([3]; recommended storage conditions (protect from light)): Stable under recommended
